# Assays:
# Assay in all cases: microbe, parasite or virus in culture
# [1] = tested on: ABC clinical isolates with SUL-DUR MIC > 4 µg/mL; format: cell-based, Acinetobacter baumannii-calcoaceticus complex
# Procedure: (§1) The following report describes the genomic analysis of these isolates for likely resistance mechanisms. Biochemical analysis of purified PBP3 and phenotypic analyses of both clinical and isogenic strains were also conducted to determine the relative impact of key resistance determinants to SUL-DUR antibacterial activity.
# (§2) Antimicrobial susceptibility testing was performed using broth microdilution following standardized methods established by the Clinical Laboratory Standards Institute (CLSI) ([35], [36]). […] MIC values were interpreted using CLSI breakpoints for all antimicrobial agents except those for which CLSI breakpoints are not available ([35]). SUL-DUR was tested as twofold dilutions of sulbactam in combination with a fixed concentration of 4 µg/mL durlobactam ([35]).
# [2] = tested on: A. nosocomialis clinical isolate; format: cell-based; details: isolate ARC7023 (IHMA 2118812), France, BSI, 2019
# Procedure: as §1, §2
# [3] = tested on: A. pittii clinical isolates; format: cell-based
# Procedure: as §1, §2
# [4] = tested on: A. baumannii clinical isolates; format: cell-based
# Procedure: as §1, §2
substance,measurement,setting,value
colistin [CST],MIC50,[1],0.5 µg/mL
same,MIC90,[1],1 µg/mL
same,MIC Max,[1],>8 µg/mL
same,MIC Min,[1],≤0.25 µg/mL
same,MIC,[2],1 µg/mL
same,MIC,"[3]; isolate ARC6949 (IHMA 1898982), Romania, RTI, 2018",0.5 µg/mL
same,MIC,"[3]; isolate ARC6951 (IHMA 1776233), Philippines, RTI, 2018",≤0.25 µg/mL
same,MIC,"[3]; isolate ARC6952 (IHMA 1899008), Romania, RTI, 2018",1 µg/mL
same,MIC,"[3]; isolate ARC7087 (IHMA 2212062), Colombia, BSI, 2020",≤0.25 µg/mL
same,MIC,"[4]; isolate ARC6644 (IHMA 1420327), Mexico, UTI, 2016",≤0.25 µg/mL
same,MIC,"[4]; isolate ARC6645 (IHMA 1435703), France, UTI, 2016",≤0.25 µg/mL
same,MIC,"[4]; isolate ARC6646 (IHMA 1484127), United States, RTI, 2016",0.5 µg/mL
same,MIC,"[4]; isolate ARC6647 (IHMA 1386786), Argentina, RTI, 2016",0.5 µg/mL
same,MIC,"[4]; isolate ARC6648 (IHMA 1407634), Spain, RTI, 2016",≤0.25 µg/mL
same,MIC,"[4]; isolate ARC6650 (IHMA 1457337), Argentina, RTI, 2016",0.5 µg/mL
same,MIC,"[4]; isolate ARC6652 (IHMA 1465642), Belgium, RTI, 2016",≤0.25 µg/mL
same,MIC,"[4]; isolate ARC6653 (IHMA 1308777), Vietnam, RTI, 2016",0.5 µg/mL
same,MIC,"[4]; isolate ARC6799 (IHMA 1562935), Spain, UTI, 2017",0.5 µg/mL
same,MIC,"[4]; isolate ARC6800 (IHMA 1557526), Turkey, RTI, 2017",>8 µg/mL
same,MIC,"[4]; isolate ARC6801 (IHMA 1662094), Thailand, RTI, 2017",≤0.25 µg/mL
same,MIC,"[4]; isolate ARC6802 (IHMA 1557073), Spain, UTI, 2017",≤0.25 µg/mL
same,MIC,"[4]; isolate ARC6803 (IHMA 1589408), Belgium, UTI, 2017",≤0.25 µg/mL
same,MIC,"[4]; isolate ARC6805 (IHMA 1558650), United States, RTI, 2017",≤0.25 µg/mL
same,MIC,"[4]; isolate ARC6808 (IHMA 1557168), Spain, RTI, 2017",≤0.25 µg/mL
same,MIC,"[4]; isolate ARC6809 (IHMA 1699528), Guatemala, RTI, 2017",0.5 µg/mL
same,MIC,"[4]; isolate ARC6810 (IHMA 1699548), Guatemala, RTI, 2017",0.5 µg/mL
same,MIC,"[4]; isolate ARC6812 (IHMA 1699530), Guatemala, RTI, 2017",0.5 µg/mL
same,MIC,"[4]; isolate ARC6813 (IHMA 1699543), Guatemala, UTI, 2017",≤0.25 µg/mL
same,MIC,"[4]; isolate ARC6814 (IHMA 1699512), Guatemala, RTI, 2017",0.5 µg/mL
same,MIC,"[4]; isolate ARC6815 (IHMA 1699513), Guatemala, RTI, 2017",0.5 µg/mL
same,MIC,"[4]; isolate ARC6816 (IHMA 1699521), Guatemala, RTI, 2017",0.5 µg/mL
same,MIC,"[4]; isolate ARC6817 (IHMA 1699523), Guatemala, RTI, 2017",0.5 µg/mL
same,MIC,"[4]; isolate ARC6818 (IHMA 1683261), Thailand, RTI, 2017",≤0.25 µg/mL
same,MIC,"[4]; isolate ARC6819 (IHMA 1683267), Thailand, RTI, 2017",1 µg/mL
same,MIC,"[4]; isolate ARC6820 (IHMA 1647876), Argentina, RTI, 2017",≤0.25 µg/mL
same,MIC,"[4]; isolate ARC6821 (IHMA 1699517), Guatemala, RTI, 2017",0.5 µg/mL
same,MIC,"[4]; isolate ARC6822 (IHMA 1637626), Guatemala, RTI, 2017",0.5 µg/mL
same,MIC,"[4]; isolate ARC6823 (IHMA 1620872), Greece, SSSI, 2017",1 µg/mL
same,MIC,"[4]; isolate ARC6824 (IHMA 1625487), Argentina, BSI, 2017",1 µg/mL
same,MIC,"[4]; isolate ARC6937 (IHMA 1562926), Spain, UTI, 2017",0.5 µg/mL
same,MIC,"[4]; isolate ARC6950 (IHMA 1820064), Israel, RTI, 2018",0.5 µg/mL
same,MIC,"[4]; isolate ARC6953 (IHMA 1909827), Turkey, IAI, 2018",0.5 µg/mL
same,MIC,"[4]; isolate ARC6954 (IHMA 1838192), Guatemala, SSSI, 2018",0.5 µg/mL
same,MIC,"[4]; isolate ARC6955 (IHMA 1825425), United States, RTI, 2018",0.5 µg/mL
same,MIC,"[4]; isolate ARC7008 (IHMA 2009813), Thailand, BSI, 2019",0.5 µg/mL
same,MIC,"[4]; isolate ARC7009 (IHMA 2043611), United States, UTI, 2019",0.5 µg/mL
same,MIC,"[4]; isolate ARC7010 (IHMA 2043398), United States, RTI, 2019",0.5 µg/mL
same,MIC,"[4]; isolate ARC7011 (IHMA 2104553), Germany, RTI, 2019",0.5 µg/mL
same,MIC,"[4]; isolate ARC7012 (IHMA 2010001), Thailand, RTI, 2019",1 µg/mL
same,MIC,"[4]; isolate ARC7013 (IHMA 1962831), Argentina, RTI, 2019",0.5 µg/mL
same,MIC,"[4]; isolate ARC7014 (IHMA 2045328), Guatemala, IAI, 2019",1 µg/mL
same,MIC,"[4]; isolate ARC7015 (IHMA 2045327), Guatemala, UTI, 2019",0.5 µg/mL
same,MIC,"[4]; isolate ARC7016 (IHMA 2148441), Brazil, BSI, 2019",0.5 µg/mL
same,MIC,"[4]; isolate ARC7017 (IHMA 2148446), Brazil, BSI, 2019",≤0.25 µg/mL
same,MIC,"[4]; isolate ARC7018 (IHMA 2045454), Guatemala, IAI, 2019",0.5 µg/mL
same,MIC,"[4]; isolate ARC7019 (IHMA 2114463), Thailand, RTI, 2019",0.5 µg/mL
same,MIC,"[4]; isolate ARC7020 (IHMA 2045326), Guatemala, RTI, 2019",0.5 µg/mL
same,MIC,"[4]; isolate ARC7021 (IHMA 1966347), Guatemala, RTI, 2019",1 µg/mL
same,MIC,"[4]; isolate ARC7022 (IHMA 2045319), Guatemala, IAI, 2019",0.5 µg/mL
same,MIC,"[4]; isolate ARC7024 (IHMA 2059448), Turkey, RTI, 2019",1 µg/mL
same,MIC,"[4]; isolate ARC7025 (IHMA 2002121), Spain, RTI, 2019",0.5 µg/mL
same,MIC,"[4]; isolate ARC7026 (IHMA 2104494), Guatemala, BSI, 2019",0.5 µg/mL
same,MIC,"[4]; isolate ARC7082 (IHMA 2160640), Belgium, BSI, 2020",≤0.25 µg/mL
same,MIC,"[4]; isolate ARC7083 (IHMA 2163687), United States, RTI, 2020",0.5 µg/mL
same,MIC,"[4]; isolate ARC7084 (IHMA 2189596), Germany, RTI, 2020",≤0.25 µg/mL
same,MIC,"[4]; isolate ARC7085 (IHMA 2205747), Guatemala, IAI, 2020",≤0.25 µg/mL
same,MIC,"[4]; isolate ARC7086 (IHMA 2207563), Israel, RTI, 2020",≤0.25 µg/mL
same,MIC,"[4]; isolate ARC7088 (IHMA 2215554), Turkey, BSI, 2020",≤0.25 µg/mL
same,MIC,"[4]; isolate ARC7089 (IHMA 2240345), Argentina, BSI, 2020",≤0.25 µg/mL
same,MIC,"[4]; isolate ARC7090 (IHMA 2244410), Poland, RTI, 2020",>8 µg/mL
same,MIC,"[4]; isolate ARC7091 (IHMA 2244564), Australia, RTI, 2020",≤0.25 µg/mL
same,MIC,"[4]; isolate ARC7092 (IHMA 2258772), United States, BSI, 2020",0.5 µg/mL
same,MIC,"[4]; isolate ARC7093 (IHMA 2258783), United States, RTI, 2020",≤0.25 µg/mL
same,MIC,"[4]; isolate ARC7094 (IHMA 2296423), Turkey, RTI, 2020",≤0.25 µg/mL
same,MIC,"[4]; isolate ARC7095 (IHMA 2320843), Turkey, BSI, 2020",≤0.25 µg/mL
same,MIC,"[4]; isolate ARC7156 (IHMA 2455450), Greece, RTI, 2021",8 µg/mL
same,MIC,"[4]; isolate ARC7158 (IHMA 2523738), Italy, BSI, 2021",0.25 µg/mL
same,MIC,"[4]; isolate ARC7159 (IHMA 2456229), Malaysia, RTI, 2021",0.25 µg/mL
same,MIC,"[4]; isolate ARC7160 (IHMA 2458626), Thailand, RTI, 2021",0.25 µg/mL
same,MIC,"[4]; isolate ARC7161 (IHMA 2429252), Ukraine, RTI, 2021",0.5 µg/mL
same,MIC,"[4]; isolate ARC7162 (IHMA 2411847), United States, BSI, 2021",0.25 µg/mL
same,MIC,"[4]; isolate ARC7163 (IHMA 2477704), United States, BSI, 2021",0.25 µg/mL
